According to patent US20160083391A1, “TRICYCLIC PIPERAZINE DERIVATIVE” (Sunovion Pharmaceuticals Inc., priority 2014, published 2016):

Test system: PDE1
Assay: In vitro HTRF PDE1 inhibition assay
Type: biochemical
Conditions: HTRF cGMP assay, 100 nM cyclic GMP, PDE (1A3, 1B or 1C) with calmodulin, 45 minutes at 37° C.; isoform of the tabulated values not stated
From the text: An exemplary procedure for the in vitro Homogenous Time Resolved Fluorescence assay, which can be used to determine the inhibitory action of compounds of the invention toward. PDE1 or its isoforms, follows.
The HTRF PDE1 assay utilized the HTRF (Homogenous Time Resolved Fluorescence) technology, which is based on the competition between unlabeled cyclic nucleotide and cyclic nucleotide labeled with XL665 for the binding to cyclic nucleotide-specific antibody labeled with cryptate. The HTRF signal is thus inversely proportional to the concentration of cyclic nucleotide being measured. Since phosphodiesterases break down cyclic nucleotides the HTRF signal was used to determine PDE activity.
The Cisbio cGMP HTRF assay kit (Cat no: 62GM2PEC) was utilized. Cyclic GMP was diluted to 200 nM in HTRF assay buffer (1 mM CaCl2, 10 mM MgCl2, 10 mM Tris-HCl, 0.1% BSA, pH7.4). 10 μl of compound or DMSO was diluted in 200 nM cyclic GMP solution and added to wells of a 96 well white plate to give 100 nM cyclic GMP in 1% DMSO final concentration. PDE (1A3, 1B or 1C) was diluted to 2× working concentration in HTRF assay buffer with […] Calmodulin, and 10 μl was added to initiate the reaction. The plate was then incubated for 45 minutes at 37° C. d2-Labelled cyclic GMP and anti-cGMP cryptate were diluted in 50 mM phosphate buffer, 0.8M KF, 1% Triton X100, 0.2% BSA, pH7.0. Following incubation 10 μl d2-cGMP, then 10 μl anti cGMP cryptate were added to each well and the plate was incubated for 45 minutes at room temperature. The plate was then read on Perkin Elmer Victor at 2 different FRET readings ex/emm 340 nm/665 nm and 340 nm/615 nm.
Compounds having an IC50 of <1 μM, are denoted as +++. Compounds having an IC50 of 1-10 μM, are denoted as ++. Compounds having an IC50 of >10 μM, are denoted as +.

Row | Structure (SMILES) | IC50
1 | CC1CNCc2nc3c(cnn3C3CCCC3)c(=O)n21 (racemic) [Compound I-99, (±)-1-cyclopentyl-6-methyl-6,7,8,9-tetrahydropyrazino[1,2-a]pyrazolo[3,4-d]pyrimidin-4(1H)-one] | > 10 µM
2 | CC(C)c1ncc2c(=O)n3c(nn12)CN(Cc1cnccn1)CC3 [Compound I-204, 3-Isopropyl-7-(pyrazin-2-ylmethyl)-8,9-dihydro-6H-imidazo[5,1-f]pyrazino[2,1-c][1,2,4]triazin-11(7H)-one] | 1 to 10 µM
3 | CC(C)c1nnc2c(=O)n3c(nn12)CN(Cc1ccc(Cl)cc1)CC3 [Compound I-221, 7-(4-Chlorobenzyl)-3-isopropyl-8,9-dihydro-6H-pyrazino[2,1-c][1,2,4]triazolo[3,4-f][1,2,4]triazin-11(7H)-one] | 1 to 10 µM
4 | CC(C)c1ncc2c(=O)n3c(nn12)CN(c1ccc(C#N)cc1)CC3 [Compound I-238, 4-(3-Isopropyl-11-oxo-8,9-dihydro-6H-imidazo[5,1-f]pyrazino[2,1-c][1,2,4]triazin-7(11H)-yl)benzonitrile] | < 1 µM
5 | CC1CN(Cc2ccc(Cl)cc2)Cc2nc3c(cnn3C3CCCC3)c(=O)n21 (racemic) [Compound I-121, (±)-8-(4-Chlorobenzyl)-1-cyclopentyl-6-methyl-6,7,8,9-tetrahydropyrazino[1,2-a]pyrazolo[3,4-d]pyrimidin-4(1H)-one] | 1 to 10 µM
6 | O=c1c2c(Nc3ccccc3)n(Cc3ccccc3)nc2nc2n1CCNC2 [Compound I-59, 2-Benzyl-3-(phenylamino)-6,7,8,9-tetrahydropyrazino[1,2-a]pyrazolo[3,4-d]pyrimidin-4(2H)-one] | > 10 µM
7 | COc1ccc(CN2CCn3c(nc4c(C5CCCC5)noc4c3=O)C2)cc1 [Compound I-129, 3-Cyclopentyl-6-(4-methoxybenzyl)-7,8-dihydro-5H-isoxazolo[4,5-d]pyrazino[1,2-a]pyrimidin-10(6H)-one] | 1 to 10 µM
8 | CN1CCn2c(nc3c(cnn3-c3ccccc3)c2=O)C1Cc1ccccc1 (racemic) [Compound I-26, (±)-9-Benzyl-8-methyl-1-phenyl-6,7,8,9-tetrahydropyrazino[1,2-a]pyrazolo[3,4-d]pyrimidin-4(1H)-one] | > 10 µM
9 | CC(C)c1nnc2c(=O)n3c(nn12)CN(Cc1ccccn1)CC3 [Compound I-226, 3-Isopropyl-7-(pyridin-2-ylmethyl)-8,9-dihydro-6H-pyrazino[2,1-c][1,2,4]triazolo[3,4-f][1,2,4]triazin-11(7H)-one] | > 10 µM
10 | Cc1cnc(CN2CCn3c(nc4c(cnn4C4CCCC4)c3=O)C2)nc1 [Compound I-199, 1-Cyclopentyl-8-((5-methylpyrimidin-2-yl)methyl)-6,7,8,9-tetrahydropyrazino[1,2-a]pyrazolo[3,4-d]pyrimidin-4(1H)-one] | 1 to 10 µM
11 | COc1ccc(CN2CCn3c(nc4c(C5CCCC5)n[nH]c4c3=O)C2)cc1 [Compound I-123, 3-Cyclopentyl-6-(4-methoxybenzyl)-5,6,7,8-tetrahydropyrazino[1,2-a]pyrazolo[4,3-d]pyrimidin-10(1H)-one] | > 10 µM
12 | CC(C)c1ncc2c(=O)n3c(nn12)CN(c1ccc(F)cc1)CC3 [Compound I-176, 7-(4-Fluorophenyl)-3-isopropyl-8,9-dihydro-6H-imidazo[5,1-f]pyrazino[2,1-c][1,2,4]triazin-11(7H)-one] | < 1 µM
13 | COc1ccc(CN2CCn3c(nc4c(c(C)nn4C4CCCC4)c3=O)C2)cc1 [Compound I-112, 1-Cyclopentyl-8-(4-methoxybenzyl)-3-methyl-6,7,8,9-tetrahydropyrazino[1,2-d]pyrazolo[3,4-d]pyrimidin-4(1H)-one] | > 10 µM
14 | CC(C)c1nn(C)c2c(=O)n3c(nc12)C(Cc1ccccc1)NCC3 (racemic) [Compound I-15, (±)-5-Benzyl-3-isopropyl-1-methyl-5,6,7,8-tetrahydropyrazino[1,2-a]pyrazolo[4,3-d]pyrimidin-10(1H)-one] | > 10 µM
15 | CCOc1cccc(N2CCn3c(nn4c(C(C)C)ncc4c3=O)C2)c1 [Compound I-173, 7-(3-Ethoxyphenyl)-3-isopropyl-8,9-dihydro-6H-imidazo[5,1-f]pyrazino[2,1-c][1,2,4]triazin-11(7H)-one] | < 1 µM
16 | Cc1ccc(CN2CCn3c(nn4c(C(C)C)ncc4c3=O)C2)cn1 [Compound I-188, 3-Isopropyl-7-((6-methylpyridin-3-yl)methyl)-8,9-dihydro-6H-imidazo[5,1-f]pyrazino[2,1-c][1,2,4]triazin-11(7H)-one] | 1 to 10 µM

The remaining lines, values ahead:

Row | IC50 | Structure (SMILES)
17 | 1 to 10 µM | CC(C)n1ncc2c(=O)n3c(nc21)CN(Cc1ccccc1-c1ccccc1)CC3 [Compound I-64, 8-([1,1′-Biphenyl]-2-ylmethyl)-1-isopropyl-6,7,8,9-tetrahydropyrazino[1,2-a]pyrazolo[3,4-d]pyrimidin-4(1H)-one]
18 | < 1 µM | CC(C)n1ncc2c(=O)n3c(nc21)CN(c1ccncc1)CC3 [Compound I-145, 1-Isopropyl-8-(pyridin-4-yl)-6,7,8,9-tetrahydropyrazino[1,2-a]pyrazolo[3,4-d]pyrimidin-4(1H)-one]
19 | < 1 µM | CC(C)Cn1ncc2c(=O)n3c(nc21)CN(Cc1ccc(Cl)cc1)CC3 [Compound I-74, 8-(4-Chlorobenzyl)-1-isobutyl-6,7,8,9-tetrahydropyrazino[1,2-a]pyrazolo[3,4-d]pyrimidin-4(1H)-one]
20 | < 1 µM | CC(C)n1ncc2c(=O)n3c(nc21)CN(Cc1cccc(-c2ccccc2)c1)CC3 [Compound I-65, 8-([1,1′-Biphenyl]-3-ylmethyl)-1-isopropyl-6,7,8,9-tetrahydropyrazino[1,2-a]pyrazolo[3,4-d]pyrimidin-4(1H)-one]
21 | 1 to 10 µM | COc1ccc(CN2Cc3nc4c(cnn4C(C)C)c(=O)n3CC2C)cc1 (racemic) [Compound I-146, (±)-1-Isopropyl-8-(4-methoxybenzyl)-7-methyl-6,7,8,9-tetrahydropyrazino[1,2-a]pyrazolo[3,4-d]pyrimidin-4(1H)-one]
22 | 1 to 10 µM | CC(C)n1ncc2c(=O)n3c(nc21)CN(c1ccccc1)CC3 [Compound I-55, 1-Isopropyl-8-phenyl-6,7,8,9-tetrahydropyrazino[1,2-a]pyrazolo[3,4-d]pyrimidin-4(1H)-one]
23 | 1 to 10 µM | COc1ccccc1CN1CCn2c(nc3c(cnn3C(C)C)c2=O)C1 [Compound I-76, 1-Isopropyl-8-(2-methoxybenzyl)-6,7,8,9-tetrahydropyrazino[1,2-a]pyrazolo[3,4-d]pyrimidin-4(1H)-one]
24 | < 1 µM | CC(C)n1ncc2c(=O)n3c(nc21)CN(Cc1cccnc1)CC3 [Compound I-135, 1-Isopropyl-8-(pyridin-3-ylmethyl)-6,7,8,9-tetrahydropyrazino[1,2-a]pyrazolo[3,4-d]pyrimidin-4(1H)-one]
25 | > 10 µM | COCCn1ncc2c(=O)n3c(nc21)CN(Cc1cccc(OC)c1)CC3 [Compound I-161, 8-(3-Methoxybenzyl)-1-(2-methoxyethyl)-6,7,8,9-tetrahydropyrazino[1,2-a]pyrazolo[3,4-d]pyrimidin-4(1H)-one]
26 | 1 to 10 µM | CC(C)n1ncc2c(=O)n3c(nc21)C(Cc1ccccc1)NCC3 (racemic) [Compound I-8, (±)-9-Benzyl-1-isopropyl-6,7,8,9-tetrahydropyrazino[1,2-a]pyrazolo[3,4-d]pyrimidin-4(1H)-one]
